Literature values in patent publication US6468258B1, “Plastic compositions including vitamin E for medical containers and methods for providing such compositions and containers” (Baxter International Inc., priority 1997, dated 2002).

Tested on: red blood cells
Details: Vitamin E added directly to red blood cells; as reported in U.S. Pat. No. 5,037,419

Vitamin E
hemolysis: lower hemolysis
